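Results reflect a 48-hour exposure of cells in 96-well plates to compound at five concentrations. Here, GI50 denotes the concentration required for 50% inhibition of growth.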 Active and inactive are the calls of the source. No stated cut-off is given here; in the data, active = GI50 up to about 1.1 µM and inactive = higher.
Legend:
Experiment in all cases: DTP human tumour cell line panel, 48 h
DU-145 = system: DU-145
MDA-MB-231 = system: MDA-MB-231
CCRF-CEM = system: CCRF-CEM
UACC-62 = system: UACC-62
SF-295 = system: SF-295
EKVX = system: EKVX
RXF 393 = system: RXF 393
SW-620 = system: SW-620
OVCAR-5 = system: OVCAR-5
KM12 = system: KM12
Malme-3M = system: Malme-3M
786-0 = system: 786-0
COLO 205 = system: COLO 205
SK-MEL-28 = system: SK-MEL-28
NCI-H460 = system: NCI-H460
HOP-62 = system: HOP-62
OVCAR-4 = system: OVCAR-4
NCI-H522 = system: NCI-H522
RPMI-8226 = system: RPMI-8226
MDA-MB-435 = system: MDA-MB-435

Measured: GI50

CC1C2(C)OC(=N)C(C#N)(C(c3cccc([N+](=O)[O-])c3)O2)C1(C#N)C#N (stereo not drawn)
inactive: DU-145 28.4 µM | MDA-MB-231 14.6 µM | CCRF-CEM 15.6 µM | UACC-62 17.9 µM | SF-295 84.7 µM | EKVX 27.9 µM | RXF 393 21.4 µM | SW-620 12.7 µM | OVCAR-5 34.7 µM | KM12 44.9 µM | Malme-3M 26.2 µM | 786-0 17.4 µM | COLO 205 13.8 µM | SK-MEL-28 17.7 µM | NCI-H460 13.5 µM

CCCCSC(=CC(=O)c1cccc(C(=O)C=C(SCCCC)SCCCC)n1)SCCCC
inactive: CCRF-CEM > 100 µM | UACC-62 > 100 µM | HOP-62 > 100 µM | SF-295 > 100 µM | EKVX > 100 µM | RXF 393 > 100 µM | OVCAR-4 > 100 µM | SW-620 > 100 µM | OVCAR-5 > 100 µM | KM12 > 100 µM | Malme-3M > 100 µM | 786-0 > 100 µM | COLO 205 > 100 µM | NCI-H522 > 100 µM | RPMI-8226 > 100 µM | SK-MEL-28 > 100 µM | NCI-H460 > 100 µM

Cc1cn([C@H]2C[C@@H]3[C@@H](COC(CCl)N3O)O2)c(=O)[nH]c1=O (stereo partly drawn)
inactive: DU-145 > 100 µM | CCRF-CEM > 100 µM | UACC-62 > 100 µM | HOP-62 > 100 µM | SF-295 > 100 µM | MDA-MB-435 > 100 µM | EKVX > 100 µM | RXF 393 > 100 µM | OVCAR-4 > 100 µM | SW-620 > 100 µM | OVCAR-5 > 100 µM | KM12 > 100 µM | Malme-3M 41.3 µM | 786-0 > 100 µM | COLO 205 > 100 µM | NCI-H522 > 100 µM | RPMI-8226 > 100 µM | SK-MEL-28 > 100 µM | NCI-H460 > 100 µM

O=CN/C=C/c1ccccc1
inactive: DU-145 > 100 µM | CCRF-CEM > 100 µM | UACC-62 > 100 µM | HOP-62 > 100 µM | SF-295 > 100 µM | EKVX > 100 µM | RXF 393 > 100 µM | OVCAR-4 > 100 µM | SW-620 > 51.2 µM | OVCAR-5 > 100 µM | KM12 > 100 µM | Malme-3M > 100 µM | 786-0 > 100 µM | COLO 205 > 63.2 µM | NCI-H522 > 100 µM | RPMI-8226 > 100 µM | SK-MEL-28 > 100 µM | NCI-H460 > 100 µM

O=C(O/N=C1/CCC/C1=C\c1ccccc1)c1ccc(Cl)cc1
inactive: CCRF-CEM > 100 µM | UACC-62 > 80.4 µM | HOP-62 > 54.3 µM | SF-295 42 µM | EKVX > 67.3 µM | RXF 393 18 µM | OVCAR-4 25.8 µM | SW-620 > 100 µM | OVCAR-5 > 100 µM | KM12 > 100 µM | Malme-3M > 100 µM | 786-0 51.8 µM | COLO 205 > 100 µM | NCI-H522 > 58.2 µM | RPMI-8226 > 65.9 µM | SK-MEL-28 > 100 µM | NCI-H460 > 31.6 µM

O=c1nc(-c2ccccc2)c2c3c(cccn13)CCC2
inactive: CCRF-CEM > 100 µM | UACC-62 > 100 µM | HOP-62 > 100 µM | SF-295 > 100 µM | RXF 393 > 100 µM | OVCAR-4 > 100 µM | SW-620 > 100 µM | OVCAR-5 > 100 µM | KM12 > 100 µM | Malme-3M > 100 µM | 786-0 > 100 µM | NCI-H522 > 100 µM | RPMI-8226 > 100 µM | SK-MEL-28 > 100 µM | NCI-H460 > 100 µM

COc1ccccc1N=C(S)Nc1ccccn1
inactive: MDA-MB-231 > 100 µM | CCRF-CEM > 100 µM | UACC-62 > 100 µM | HOP-62 63.4 µM | SF-295 66.2 µM | MDA-MB-435 > 100 µM | EKVX 55 µM | RXF 393 59 µM | OVCAR-4 > 100 µM | SW-620 > 100 µM | OVCAR-5 > 100 µM | KM12 > 100 µM | Malme-3M > 100 µM | 786-0 56.5 µM | COLO 205 > 100 µM | NCI-H522 43.4 µM | RPMI-8226 > 100 µM | SK-MEL-28 > 100 µM | NCI-H460 > 100 µM

COc1cc(C(C)O)c[n+](Cc2ccccc2)c1 (stereo not drawn)
inactive: CCRF-CEM > 100 µM | UACC-62 > 100 µM | HOP-62 > 100 µM | SF-295 > 100 µM | EKVX > 100 µM | RXF 393 > 100 µM | OVCAR-4 > 100 µM | SW-620 > 100 µM | OVCAR-5 > 100 µM | KM12 > 100 µM | Malme-3M > 100 µM | 786-0 > 100 µM | COLO 205 > 100 µM | NCI-H522 > 100 µM | RPMI-8226 > 100 µM | SK-MEL-28 > 100 µM | NCI-H460 > 100 µM

O=[N+]([O-])c1nccn1COCCO
inactive: CCRF-CEM > 100 µM | HOP-62 > 100 µM | SF-295 > 100 µM | RXF 393 > 100 µM | OVCAR-4 > 100 µM | SW-620 > 100 µM | OVCAR-5 > 100 µM | KM12 > 100 µM | Malme-3M > 100 µM | 786-0 > 100 µM | COLO 205 > 100 µM | NCI-H522 > 100 µM | RPMI-8226 > 100 µM | SK-MEL-28 > 100 µM | NCI-H460 > 100 µM

Oc1ncnc2c1nnn2CCCn1nnc2c(O)ncnc21
inactive: CCRF-CEM > 100 µM | UACC-62 > 100 µM | HOP-62 > 100 µM | SF-295 > 100 µM | EKVX > 100 µM | RXF 393 > 100 µM | OVCAR-4 > 100 µM | SW-620 > 100 µM | OVCAR-5 > 100 µM | KM12 > 100 µM | 786-0 > 100 µM | COLO 205 > 100 µM | NCI-H522 > 100 µM | RPMI-8226 > 100 µM | SK-MEL-28 > 100 µM | NCI-H460 > 100 µM

COC(=O)c1c(C(=O)OC)c(-c2ccccc2)n(-c2ccccc2)c(=O)c1-c1ccccc1
inactive: CCRF-CEM > 100 µM | UACC-62 61 µM | HOP-62 27.6 µM | SF-295 36.9 µM | EKVX > 100 µM | RXF 393 20.9 µM | OVCAR-4 25.2 µM | SW-620 > 100 µM | OVCAR-5 > 100 µM | KM12 > 100 µM | Malme-3M 61.2 µM | 786-0 32.4 µM | COLO 205 > 100 µM | NCI-H522 94.8 µM | RPMI-8226 > 100 µM | NCI-H460 98.6 µM

COc1ccc(Cc2cc3c(cc2OCC(=O)O)OCO3)cc1
inactive: CCRF-CEM > 100 µM | UACC-62 > 100 µM | HOP-62 > 100 µM | SF-295 > 100 µM | EKVX > 100 µM | RXF 393 > 100 µM | OVCAR-4 > 100 µM | SW-620 > 100 µM | OVCAR-5 > 100 µM | KM12 > 100 µM | Malme-3M > 100 µM | 786-0 > 100 µM | COLO 205 > 100 µM | NCI-H522 > 100 µM | RPMI-8226 > 100 µM | SK-MEL-28 > 100 µM | NCI-H460 > 100 µM

CN1c2ccccc2NC(CC(=O)O)C2CC=CN21 (stereo not drawn)
inactive: CCRF-CEM > 100 µM | UACC-62 > 100 µM | HOP-62 > 100 µM | SF-295 > 100 µM | EKVX > 100 µM | RXF 393 > 100 µM | OVCAR-4 > 100 µM | SW-620 > 100 µM | OVCAR-5 > 100 µM | KM12 > 100 µM | Malme-3M > 100 µM | 786-0 > 100 µM | COLO 205 > 100 µM | NCI-H522 > 100 µM | RPMI-8226 > 100 µM | SK-MEL-28 > 100 µM | NCI-H460 > 100 µM

O=c1[nH]c(N/N=C\C(=N/Nc2nc3ccccc3c(=O)[nH]2)C(O)C(O)C(O)CO)nc2ccccc12 (stereo not drawn)
inactive: DU-145 > 100 µM | MDA-MB-231 > 100 µM | CCRF-CEM > 100 µM | UACC-62 > 100 µM | HOP-62 > 100 µM | SF-295 > 100 µM | MDA-MB-435 > 100 µM | EKVX > 100 µM | SW-620 > 100 µM | OVCAR-5 > 100 µM | KM12 > 100 µM | 786-0 > 100 µM | COLO 205 > 100 µM | RPMI-8226 > 100 µM | SK-MEL-28 > 100 µM | NCI-H460 > 100 µM

COC(=O)C1Cc2c(n(C)c3ccccc23)C(CCC(=O)O)N1Cc1ccccc1 (stereo not drawn)
inactive: CCRF-CEM 25.4 µM | UACC-62 26.6 µM | HOP-62 > 100 µM | SF-295 31 µM | EKVX 46.1 µM | RXF 393 28.6 µM | OVCAR-4 33.7 µM | SW-620 40.4 µM | OVCAR-5 79.3 µM | KM12 28.4 µM | Malme-3M > 100 µM | 786-0 > 100 µM | COLO 205 27 µM | NCI-H522 22.7 µM | RPMI-8226 16.1 µM | SK-MEL-28 28.4 µM | NCI-H460 23.6 µM

CC(C)NC(=O)OCc1c(COC(=O)NC(C)C)c(-c2cc[n+](COC(=O)CC(C)(C)C)cc2)n2c1CCC2
inactive: MDA-MB-231 > 100 µM | CCRF-CEM > 100 µM | HOP-62 > 100 µM | SF-295 > 100 µM | EKVX > 100 µM | RXF 393 > 100 µM | OVCAR-4 > 100 µM | SW-620 > 100 µM | 786-0 > 100 µM | COLO 205 > 100 µM | NCI-H522 > 100 µM | RPMI-8226 > 100 µM
